Reference: patent US7642270B2, “5-oxo-5,8-dihydro-pyrido-pyrimidine as inhibitors of c-fms kinase” (Janssen Pharmaceutica N.V., priority 2005, dated 2010)
pIC50: −log10 of the molar value.

Assays:
CSF-1R = CSF-1R (Homo sapiens, UniProt P07333); experiment: Peptide (non-phosphorylated) assay: fluorescence polarization competition immunoassay of CSF-1R phosphorylation of synthetic CSF-1R555-568 peptide; assay type: biochemical; conditions: 0.7 nM CSF-1R, 308 μM […], 1 mM ATP, 5 mM MgCl2, 80 min room temperature; mean of at least three determinations; read-out: c-fms Peptide IC50
CSF-1R, sequence (P07333 20-972): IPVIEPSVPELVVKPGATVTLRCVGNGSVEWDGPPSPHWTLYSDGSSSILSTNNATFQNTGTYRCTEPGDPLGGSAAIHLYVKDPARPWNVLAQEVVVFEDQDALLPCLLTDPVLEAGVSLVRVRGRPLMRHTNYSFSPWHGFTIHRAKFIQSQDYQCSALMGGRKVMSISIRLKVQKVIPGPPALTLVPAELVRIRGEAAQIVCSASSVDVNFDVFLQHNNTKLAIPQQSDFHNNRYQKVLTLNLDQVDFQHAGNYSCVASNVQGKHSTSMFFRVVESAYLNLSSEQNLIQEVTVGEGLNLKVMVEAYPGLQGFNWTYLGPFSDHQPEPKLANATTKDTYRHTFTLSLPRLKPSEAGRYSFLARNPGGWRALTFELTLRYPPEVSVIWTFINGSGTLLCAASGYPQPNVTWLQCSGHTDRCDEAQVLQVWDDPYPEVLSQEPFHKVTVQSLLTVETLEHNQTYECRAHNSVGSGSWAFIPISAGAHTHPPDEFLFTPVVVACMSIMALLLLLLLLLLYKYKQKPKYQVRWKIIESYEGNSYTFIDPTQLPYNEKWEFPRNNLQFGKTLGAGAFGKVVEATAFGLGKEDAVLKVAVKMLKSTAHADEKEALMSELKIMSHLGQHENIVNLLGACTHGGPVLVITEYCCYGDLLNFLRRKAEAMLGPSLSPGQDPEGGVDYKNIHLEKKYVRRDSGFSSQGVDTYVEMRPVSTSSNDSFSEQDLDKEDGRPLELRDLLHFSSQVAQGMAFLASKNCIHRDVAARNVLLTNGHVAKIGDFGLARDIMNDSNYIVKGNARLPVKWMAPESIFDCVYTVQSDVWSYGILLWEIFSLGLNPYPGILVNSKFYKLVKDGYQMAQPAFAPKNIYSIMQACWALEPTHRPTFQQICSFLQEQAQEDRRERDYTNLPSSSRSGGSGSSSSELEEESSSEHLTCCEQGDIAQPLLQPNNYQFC
Method: Peptide (Non-Phosphorylated) Assay
The kinase reaction was initiated by adding 1 μL of 10 mM ATP in assay buffer. […] Positive and negative control wells were included on each plate, where 4% DMSO in assay buffer was substituted for the compound; in addition, positive control wells received 1.2 μL of 50 mM EDTA before the start of the reaction.
The plates were covered and incubated at room temperature for 80 min. Reactions were stopped by addition of 1.2 μL of 50 mM EDTA. Each well then received 10 μL of a 1:1:3 mixture of 10× anti-phosphotyrosine antibody, 10×PTK green tracer, and FP dilution buffer, respectively (Cat. # P2837, Invitrogen, Carlsbad, Calif.). The plates were covered, incubated for 30 min at room temperature, and the fluorescence polarization was read on an Analyst plate reader (Molecular Devices).

c-fms = c-fms (Homo sapiens, UniProt P07333); experiment: c-fms autophosphorylation, fluorescence polarization competition immunoassay; assay type: biochemical; conditions: 10 nM c-fms, 1 mM ATP, 5 mM MgCl2, 45 min room temperature; averages of three independent measurements; read-out: c-fms Autophosphorylation IC50
c-fms, sequence (P07333 20-972): as above
Method: Autophosphorylation, Fluorescence Polarization Competition Immunoassay
The assay buffer used was 100 mM 4-(2-hydroxyethyl)piperazine 1-ethanesulfonic acid (HEPES), pH 7.5, 1 mM 1,4-dithio-DL-threitol (DTT), 0.01% (v/v) Tween-20. Compounds were diluted in assay buffer containing 4% dimethylsulfoxide (DMSO) just prior to the assay. […] The kinase reaction was initiated by adding 2 μL of 5 mM ATP (Sigma) in assay buffer. The final concentrations in the assay were 10 nM c-fms, 1 mM ATP, 5 mM MgCl2, 2% DMSO. Control reactions were ran in each plate: in positive and negative control wells, assay buffer (made 4% in DMSO) was substituted for the compound; in addition, positive control wells received 1.2 μL of 50 mM ethylenediaminetetraaceticacid (EDTA).
The plates were incubated at room temperature for 45 min. At the end of the incubation, the reaction was quenched with 1.2 μL of 50 mM EDTA (EDTA was not added to the positive control wells at this point; see above). Following a 5-min incubation, each well received 10 μL of a 1:1:3 mixture of anti-phosphotyrosine antibody, 10×, PTK green tracer, 10× (vortexed), FP dilution buffer, respectively (all from PanVera, cat. # P2837). The plate was covered, incubated for 30 min at room temperature and the fluorescence polarization was read on the Analyst.
The IC50 values shown in Table 1 are averages of three independent measurements.

| pIC50 (CSF-1R) | pIC50 (c-fms) | SMILES |
| --- | --- | --- |
| 9.28 | 8.10 | CNC(=O)c1cn(-c2ccc3c(c2)CCC3)c2nc(Nc3ccc(N4CC(C)NC(C)C4)cc3)ncc2c1=O (centres unmarked) [Cpd 44, 2-[4-(3,5-Dimethyl-piperazin-1-yl)-phenylamino]-8-indan-5-yl-5-oxo-5,8-dihydro-pyrido[2,3-d]pyrimidine-6-carboxylic acid methyl amide] |
| 8.57 | 7.89 | CN(C)CC(O)COc1ccc(Nc2ncc3c(=O)c(C(N)=O)cn(-c4ccc5c(c4)CCC5)c3n2)cc1 (centres unmarked) [Cpd 10, 2-[4-(3-Dimethylamino-2-hydroxy-propoxy)-phenylamino]-8-indan-5-yl-5-oxo-5,8-dihydro-pyrido[2,3-d]pyrimidine-6-carboxylic acid amide] |
| 8.89 | 7.82 | CNC(=O)c1cn(-c2ccc3c(c2)CCC3)c2nc(Nc3ccc(CCN4CCN(C)CC4)cc3)ncc2c1=O [Cpd 47, 8-Indan-5-yl-2-{4-[2-(4-methyl-piperazin-1-yl)-ethyl]-phenylamino}-5-oxo-5,8-dihydro-pyrido[2,3-d]pyrimidine-6-carboxylic acid methyl amide] |
| 9.31 | 8.10 | NC(=O)c1cn(-c2ccc3c(c2)CCC3)c2nc(Nc3ccc(C4CCNCC4)cc3)ncc2c1=O [Cpd 49, 8-Indan-5-yl-5-oxo-2-(4-piperidin-4-yl-phenylamino)-5,8-dihydro-pyrido[2,3-d]pyrimidine-6-carboxylic acid amide] |
| 8.37 | 7.92 | CN(C)c1cccc(Nc2ncc3c(=O)c(C(N)=O)cn(-c4ccc5c(c4)CCC5)c3n2)c1 [Cpd 16, 2-(3-Dimethylamino-phenylamino)-8-indan-5-yl-5-oxo-5,8-dihydro-pyrido[2,3-d]pyrimidine-6-carboxylic acid amide] |
| 8.80 | 7.52 | CNC(=O)c1cn(-c2ccc3c(c2)CCC3)c2nc(Nc3ccc(CCN4CCOCC4)cc3)ncc2c1=O [Cpd 28, 8-Indan-5-yl-2-[4-(2-morpholin-4-yl-ethyl)-phenylamino]-5-oxo-5,8-dihydro-pyrido[2,3-d]pyrimidine-6-carboxylic acid methyl amide] |
| 9.24 |  | CC1CN(c2ccc(Nc3ncc4c(=O)c(C(N)=O)cn(-c5ccc6c(c5)CCC6)c4n3)cc2)CC(C)N1 (centres unmarked) [Cpd 43, 2-[4-(3,5-Dimethyl-piperazin-1-yl)-phenylamino]-8-indan-5-yl-5-oxo-5,8-dihydro-pyrido[2,3-d]pyrimidine-6-carboxylic acid amide] |
| 8.96 | 8.00 | CNC(=O)c1cn(-c2ccc3c(c2)CCC3)c2nc(Nc3cccc(N4CC(C)NC(C)C4)c3)ncc2c1=O (centres unmarked) [Cpd 56, 2-[3-(3,5-Dimethyl-piperazin-1-yl)-phenylamino]-8-indan-5-yl-5-oxo-5,8-dihydro-pyrido[2,3-d]pyrimidine-6-carboxylic acid methyl amide] |
| 8.25 | 7.34 | CNC(=O)c1cn(-c2ccc3c(c2)CCC3)c2nc(Nc3ccc(OCC(O)CN(C)C)cc3)ncc2c1=O (centres unmarked) [Cpd 11, 2-[4-(3-Dimethylamino-2-hydroxy-propoxy)-phenylamino]-8-indan-5-yl-5-oxo-5,8-dihydro-pyrido[2,3-d]pyrimidine-6-carboxylic acid methylamide] |
| 8.82 | 7.85 | CN1CCN(Cc2cccc(Nc3ncc4c(=O)c(C(N)=O)cn(-c5ccc6c(c5)CCC6)c4n3)c2)CC1 [Cpd 23, 8-Indan-5-yl-2-[3-(4-methyl-piperazin-1-ylmethyl)-phenylamino]-5-oxo-5,8-dihydro-pyrido[2,3-d]pyrimidine-6-carboxylic acid amide] |
| 8.96 | 7.96 | CCNC(=O)c1cn(-c2ccc3c(c2)CCC3)c2nc(Nc3cccc(N4CCNCC4)c3)ncc2c1=O [Cpd 54, 8-Indan-5-yl-5-oxo-2-(3-piperazin-1-yl-phenylamino)-5,8-dihydro-pyrido[2,3-d]pyrimidine-6-carboxylic acid ethyl amide] |
| 9.34 | 8.10 | CNC(=O)c1cn(-c2ccc3c(c2)CCC3)c2nc(Nc3cccc(N4CCNCC4)c3)ncc2c1=O [Cpd 53, 8-Indan-5-yl-5-oxo-2-(3-piperazin-1-yl-phenylamino)-5,8-dihydro-pyrido[2,3-d]pyrimidine-6-carboxylic acid methyl amide] |
| 9.01 | 7.82 | CNC(=O)c1cn(-c2ccc3c(c2)CCC3)c2nc(Nc3ccc(C4CCNCC4)cc3)ncc2c1=O [Cpd 50, 8-Indan-5-yl-5-oxo-2-(4-piperidin-4-yl-phenylamino)-5,8-dihydro-pyrido[2,3-d]pyrimidine-6-carboxylic acid methyl amide] |
| 9.29 | 8.22 | CC1CN(c2cccc(Nc3ncc4c(=O)c(C(N)=O)cn(-c5ccc6c(c5)CCC6)c4n3)c2)CC(C)N1 (centres unmarked) [Cpd 55, 2-[3-(3,5-Dimethyl-piperazin-1-yl)-phenylamino]-8-indan-5-yl-5-oxo-5,8-dihydro-pyrido[2,3-d]pyrimidine-6-carboxylic acid amide] |
| 8.41 | 7.89 | CN1CCN(c2ccc(Nc3ncc4c(=O)c(C(N)=O)cn(-c5ccc6c(c5)CCC6)c4n3)cc2)CC1 [Cpd 7, 8-Indan-5-yl-2-[4-(4-methyl-piperazin-1-yl)-phenylamino]-5-oxo-5,8-dihydro-pyrido[2,3-d]pyrimidine-6-carboxylic acid amide] |
| 9.38 | 8.30 | NC(=O)c1cn(-c2ccc3c(c2)CCC3)c2nc(Nc3cccc(N4CCNCC4)c3)ncc2c1=O [Cpd 52, 8-Indan-5-yl-5-oxo-2-(3-piperazin-1-yl-phenylamino)-5,8-dihydro-pyrido[2,3-d]pyrimidine-6-carboxylic acid amide] |
|  | 7.11 | CCNC(=O)c1cn(-c2ccc3c(c2)CCC3)c2nc(Nc3ccc(OCC(O)CN(C)C)cc3)ncc2c1=O (centres unmarked) [Cpd 12, 2-[4-(3-Dimethylamino-2-hydroxy-propoxy)-phenylamino]-8-indan-5-yl-5-oxo-5,8-dihydro-pyrido[2,3-d]pyrimidine-6-carboxylic acid ethylamide] |
|  | 7.92 | CCNC(=O)c1cn(-c2ccc3c(c2)CCC3)c2nc(Nc3ccc(N4CC(C)NC(C)C4)cc3)ncc2c1=O (centres unmarked) [Cpd 45, 2-[4-(3,5-Dimethyl-piperazin-1-yl)-phenylamino]-8-indan-5-yl-5-oxo-5,8-dihydro-pyrido[2,3-d]pyrimidine-6-carboxylic acid ethyl amide] |
|  | 7.48 | CCNC(=O)c1cn(-c2ccc3c(c2)CCC3)c2nc(Nc3ccc(C[C@H]4COC(=O)N4)cc3)ncc2c1=O [Cpd 32, (4S)-8-Indan-5-yl-5-oxo-2-[4-(2-oxo-oxazolidin-4-ylmethyl)-phenylamino]-5,8-dihydro-pyrido[2,3-d]pyrimidine-6-carboxylic acid ethyl amide] |
|  | 7.89 | CCNC(=O)c1cn(-c2ccc3c(c2)CCC3)c2nc(Nc3cccc(N4CCN(C)CC4)c3)ncc2c1=O [Cpd 39, 8-Indan-5-yl-2-[3-(4-methyl-piperazin-1-yl)-phenylamino]-5-oxo-5,8-dihydro-pyrido[2,3-d]pyrimidine-6-carboxylic acid ethyl amide] |
